Biological target: Human TRPA1 (Homo sapiens, UniProt O75762)
Test: Assay 1: In vitro cellular testing of TRPA1 modulation (CHO-TREx, Fluo-3 calcium fluorescence, AITC agonist)
Type: cell-based
Parameters: expressed in transfected cells; host or cells: CHO-TREx cells (Invitrogen), vector pcDNA4/TO
Settings: CHO-TREx cells expressing human TRPA1; Fluo-3 fluorescence (FLIPR/Tetra); agonist 15 μM allyl isothiocyanate (AITC); 30 minute antagonist incubation
How it was run: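 Tetracycline-induced CHO-TREx cells stably expressing human TRPA1, loaded with 4 μM Fluo-3 AM, preincubated 30 min with compound (serial dilution typically from 10 μM, three-fold steps) in HEPES saline pH 7.4. Fluorescence change over 3 min after 15 μM AITC; IC50 from Hill fit versus no-antagonist and 10 μM ruthenium red controls.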

Human TRPA1, sequence (O75762 whole entry): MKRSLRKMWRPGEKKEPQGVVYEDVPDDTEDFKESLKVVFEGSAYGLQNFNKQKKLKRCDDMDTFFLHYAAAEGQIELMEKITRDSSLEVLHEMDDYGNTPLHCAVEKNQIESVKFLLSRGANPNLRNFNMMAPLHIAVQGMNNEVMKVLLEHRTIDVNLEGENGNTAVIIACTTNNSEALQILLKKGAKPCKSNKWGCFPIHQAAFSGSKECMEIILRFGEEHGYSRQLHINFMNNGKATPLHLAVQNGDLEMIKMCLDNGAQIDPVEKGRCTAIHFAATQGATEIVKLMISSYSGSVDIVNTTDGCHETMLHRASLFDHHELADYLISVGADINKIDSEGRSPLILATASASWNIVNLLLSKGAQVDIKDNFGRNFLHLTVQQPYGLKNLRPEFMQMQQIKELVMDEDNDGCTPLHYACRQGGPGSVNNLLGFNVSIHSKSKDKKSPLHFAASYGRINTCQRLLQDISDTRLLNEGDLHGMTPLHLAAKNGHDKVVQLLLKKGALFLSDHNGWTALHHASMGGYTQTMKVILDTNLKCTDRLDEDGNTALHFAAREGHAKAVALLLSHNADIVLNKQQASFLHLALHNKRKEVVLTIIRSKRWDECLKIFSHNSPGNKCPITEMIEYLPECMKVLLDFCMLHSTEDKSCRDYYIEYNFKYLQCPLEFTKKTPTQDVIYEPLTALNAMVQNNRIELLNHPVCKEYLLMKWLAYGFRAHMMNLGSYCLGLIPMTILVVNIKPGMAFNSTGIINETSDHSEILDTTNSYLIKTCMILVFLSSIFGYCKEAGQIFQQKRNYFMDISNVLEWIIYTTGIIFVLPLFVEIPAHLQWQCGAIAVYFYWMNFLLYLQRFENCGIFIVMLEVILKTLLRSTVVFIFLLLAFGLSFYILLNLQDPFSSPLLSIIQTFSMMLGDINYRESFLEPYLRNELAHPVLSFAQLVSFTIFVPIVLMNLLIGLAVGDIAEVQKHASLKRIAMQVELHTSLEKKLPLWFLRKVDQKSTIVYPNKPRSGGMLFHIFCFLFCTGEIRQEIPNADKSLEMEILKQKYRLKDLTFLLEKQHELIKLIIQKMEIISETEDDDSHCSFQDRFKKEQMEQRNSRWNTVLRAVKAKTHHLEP

| SMILES | IC50 [nM] |
| --- | --- |
| CNc1nc(CNC(=O)[C@@H]2CCCN2S(=O)(=O)c2ccc(Cl)s2)cc(-c2ccc(C(F)(F)F)cc2)n1 [Example 28, 1-(5-Chloro-thiophene-2-sulfonyl)-pyrrolidine-2S-carboxylic acid [2-methylamino-6-(4-trifluoromethyl-phenyl)-pyrimidin-4-ylmethyl]-amide] | 81 |
| O=C(NCc1ccnc(-c2ccc(C(F)(F)F)cc2)c1)[C@@H]1CCCN1S(=O)(=O)c1ccc(Cl)s1 [Example 124, 1-(5-Chlorothiophene-2-sulfonyl)pyrrolidine-2S-carboxylic acid [2-(4-trifluoromethylphenyl)-pyridin-4-ylmethyl]-amide] | 11 |
| CSc1ccc(-c2cccc(CNC(=O)[C@@H]3CCCN3S(=O)(=O)c3ccc(F)cc3)c2)cc1 [Example 82, 1-(4-Fluoro-benzenesulfonyl)-pyrrolidine-2S-carboxylic acid (4′-methylsulfanyl-biphenyl-3-ylmethyl)-amide] | 50 |
| COc1ccc(-c2cccc(CNC(=O)[C@@H]3CCCN3S(=O)(=O)c3ccc(F)cc3)c2)cc1 [Example 80, 1-(4-Fluorobenzenesulfonyl)-pyrrolidine-2S-carboxylic acid (4′-methoxybiphenyl-3-ylmethyl)-amide] | 410 |
| CC(O)CNc1nc(CNC(=O)[C@@H]2CCCN2S(=O)(=O)c2ccc(Cl)s2)cc(-c2ccc(C(F)(F)F)cc2)n1 (stereo partly drawn) [Example 45, 1-(5-Chloro-thiophene-2-sulfonyl)-pyrrolidine-2S-carboxylic acid [2-(2-hydroxy-propylamino)-6-(4-trifluoromethyl-phenyl)-pyrimidin-4-ylmethyl]-amide] | 2040 |
| O=C(NCc1cc(NCc2ccccn2)nc(-c2ccc(C(F)(F)F)cc2)c1)[C@@H]1C=CCN1S(=O)(=O)c1ccc(Cl)s1 [Example 330, (2S)-1-[(5-Chlorothiophen-2-yl)sulfonyl]-N-({2-[(pyridin-2-ylmethyl)amino]-6-[4-(trifluoromethyl)phenyl]pyridin-4-yl}methyl)-2,5-dihydro-1H-pyrrole-2-carboxamide] | 604 |
| CC1CCCN1c1cc(CNC(=O)[C@@H]2CC(F)(F)CN2S(=O)(=O)c2ccc(F)cc2)cc(-c2ccc(C(F)(F)F)cc2)n1 (stereo partly drawn) [Example 396, 4,4-Difluoro-1-[(4-fluorophenyl)sulfonyl]-N-({2-(2-methylpyrrolidin-1-yl)-6-[4-(trifluoromethyl)phenyl]pyridin-4-yl}methyl)-L-prolinamide] | 1790 |
| CC(C)(NC(=O)[C@@H]1CCCN1S(=O)(=O)c1ccc(Cl)s1)c1cccc(-c2ccc(C(F)(F)F)cc2)c1 [Example 118, (2S)-1-(5-Chloro-thiophene-2-sulfonyl)-pyrrolidine-2-carboxylic acid [1-methyl-1-(4′-trifluoromethyl-biphenyl-3-yl)ethyl]-amide] | 5770 |
| O=C(NCc1cc(-c2ccc(C(F)(F)F)cc2)nc(N2CCN(Cc3ccncc3)CC2)c1)[C@@H]1C=CCN1S(=O)(=O)c1ccc(Cl)s1 [Example 340, (2S)-1-[(5-Chlorothiophen-2-yl)sulfonyl]-N-({2-[4-(pyridin-4-ylmethyl)piperazin-1-yl]-6-[4-(trifluoromethyl)phenyl]pyridin-4-yl}methyl)-2,5-dihydro-1H-pyrrole-2-carboxamide] | 210 |
| O=C(NCc1cc(-c2ccc(C(F)(F)F)cc2)nc(N2CCN(Cc3ccccc3)CC2)c1)[C@@H]1CCCN1S(=O)(=O)c1ccc(Cl)s1 [Example 367, N-({2-(4-Benzylpiperazin-1-yl)-6-[4-(trifluoromethyl)phenyl]pyridin-4-yl}methyl)-1-[(5-chlorothiophen-2-yl)sulfonyl]-L-prolinamide] | 18 |
| CN(C)[C@H]1CCN(c2nc(CNC(=O)[C@@H]3CCCN3S(=O)(=O)c3ccc(Cl)s3)cc(-c3ccc(C(F)(F)F)cc3)n2)C1 [Example 33, 1-(5-Chloro-thiophene-2-sulfonyl)-pyrrolidine-2S-carboxylic acid [2-(3S-dimethylamino-pyrrolidin-1-yl)-6-(4-trifluoromethyl-phenyl)-pyrimidin-4-ylmethyl]-amide] | 469 |
| O=C(NCc1cc(-c2ccc(C(F)(F)F)cc2)nc(N2CCN(Cc3ccccn3)CC2)c1)[C@@H]1CCCN1S(=O)(=O)c1ccc(Cl)s1 [Example 339, 1-[(5-Chlorothiophen-2-yl)sulfonyl]-N-({2-[4-(pyridin-2-ylmethyl)piperazin-1-yl]-6-[4-(trifluoromethyl)phenyl]pyridin-4-yl}methyl)-L-prolinamide] | 251 |

Other lines, results leading:

| IC50 [nM] | SMILES |
| --- | --- |
| 340 | COc1ccc(-c2cccc(CNC(=O)[C@@H]3CCCN3S(=O)(=O)c3ccc(F)cc3)c2)cn1 [Example 84, 1-(4-Fluorobenzenesulfonyl)-pyrrolidine-2S-carboxylic acid 3-(6-methoxypyridin-3-yl)-benzylamide] |
| 518 | O=C(NCc1cccc(-c2ccc3ccccc3n2)c1)[C@@H]1CCCN1S(=O)(=O)c1ccc(F)cc1 [Example 107, 1-(4-Fluoro-benzenesulfonyl)-pyrrolidine-2S-carboxylic acid 3-quinolin-2-yl-benzylamide] |
| 4420 | O=C(NCc1cc(-c2ccc(C(F)(F)F)cc2)nc(N2CCNCC2)n1)[C@@H]1CCCN1S(=O)(=O)c1ccc(F)cc1 [Example 23, 1-(4-Fluoro-benzenesulfonyl)-pyrrolidine-2S-carboxylic acid [2-piperazin-1-yl-6-(4-trifluoromethyl-phenyl)-pyrimidin-4-ylmethyl]-amide] |
| 1030 | O=C(NCc1cccc(-c2cnc3ccccc3c2)c1)[C@@H]1CCCN1S(=O)(=O)c1ccc(F)cc1 [Example 105] |
| 6 | O=C(NCc1ccnc(-c2ccc(OC(F)(F)F)cc2)c1)[C@@H]1CCCN1S(=O)(=O)c1ccc(Cl)s1 [Example 130, 1-(5-Chloro-thiophene-2-sulfonyl)-pyrrolidine-2S-carboxylic acid [2-(4-trifluoromethoxy-phenyl)-pyridin-4-ylmethyl]-amide] |
| 14 | O=C(NCc1cccc(-c2ccc(C(F)(F)F)c(F)c2)c1)[C@@H]1CCCN1S(=O)(=O)c1ccc(F)cc1 [Example 71, 1-(4-Fluorobenzenesulfonyl)-pyrrolidine-2S-carboxylic acid (3′-fluoro-4′-trifluoromethylbiphenyl-3-ylmethyl)-amide] |
| 1180 | O=C(NCc1cc(NCc2ccccc2)nc(-c2ccc(C(F)(F)F)cc2)c1)[C@@H]1CCCN1S(=O)(=O)c1ccc(F)cc1 [Example 322, N-({2-(Benzylamino)-6-[4-(trifluoromethyl)phenyl]pyridin-4-yl}methyl)-1-[(4-fluorophenyl)sulfonyl]-L-prolinamide] |
| 594 | CC(Nc1cc(CNC(=O)[C@@H]2CCCN2S(=O)(=O)c2ccc(F)cc2)cc(-c2ccc(C(F)(F)F)cc2)n1)c1ccncc1 (stereo partly drawn) [Example 402, 1-[(4-Fluorophenyl)sulfonyl]-N-({2-[(1-pyridin-4-ylethyl)amino]-6-[4-(trifluoromethyl)phenyl]pyridin-4-yl}methyl)-L-prolinamide] |
| 252 | O=C(NCc1cccc(-c2ccc(N3CCCCC3)cc2)c1)[C@@H]1CCCN1S(=O)(=O)c1ccc(F)cc1 [Example 103, 1-(4-Fluoro-benzenesulfonyl)-pyrrolidine-2S-carboxylic acid (4′-piperidin-1-yl-biphenyl-3-ylmethyl)-amide] |
| 383 | COc1ccc(S(=O)(=O)N2CCC[C@H]2C(=O)NCc2cc(-c3ccc(C(F)(F)F)cc3)ncn2)cc1 [Example 150, 1-(4-Methoxybenzenesulfonyl)-pyrrolidine-2S-carboxylic acid [6-(4-trifluoromethylphenyl)-pyrimidin-4-ylmethyl]-amide] |
| 2750 | O=C(NCc1cc(-c2ccc(C(F)(F)F)cc2)nc(N2CCN(Cc3ccccn3)CC2)c1)[C@@H]1C=CCN1S(=O)(=O)c1ccc(F)cc1 [Example 353, (2S)-1-[(4-Fluorophenyl)sulfonyl]-N-({2-[4-(pyridin-2-ylmethyl)piperazin-1-yl]-6-[4-(trifluoromethyl)phenyl]pyridin-4-yl}methyl)-2,5-dihydro-1H-pyrrole-2-carboxamide] |
| 181 | O=C(NCc1cccc(-c2cccc(OC(F)(F)F)c2)c1)[C@@H]1CCCN1S(=O)(=O)c1ccc(F)cc1 [Example 69, 1-(4-Fluorobenzenesulfonyl)-pyrrolidine-2S-carboxylic acid (3′-trifluoromethoxybiphenyl-3-ylmethyl)-amide] |
| 95 | CC(C)CN1CCN(c2cc(CNC(=O)[C@@H]3C=CCN3S(=O)(=O)c3ccc(Cl)s3)cc(-c3ccc(C(F)(F)F)cc3)n2)CC1 [Example 389, (2S)-1-[(5-Chlorothiophen-2-yl)sulfonyl]-N-({2-[4-(2-methylpropyl)piperazin-1-yl]-6-[4-(trifluoromethyl)phenyl]pyridin-4-yl}methyl)-2,5-dihydro-1H-pyrrole-2-carboxamide] |
| 30 | CN(C)c1nc(CNC(=O)[C@@H]2CCCN2S(=O)(=O)c2ccc(F)cc2)cc(-c2ccc(C(F)(F)F)cc2)n1 [Example 10, 1-(4-Fluoro-benzenesulfonyl)-pyrrolidine-2S-carboxylic acid [2-dimethylamino-6-(4-trifluoromethyl-phenyl)-pyrimidin-4-ylmethyl]-amide] |
| 806 | O=C(NCc1ccnc(-c2ccc(C(F)(F)F)cc2)n1)[C@@H]1CCCN1S(=O)(=O)c1ccc(F)cc1 [Example 187, (2S)-1-(4-Fluoro-benzenesulfonyl)-pyrrolidine-2-carboxylic acid [2-(4-trifluoromethyl-phenyl)-pyrimidin-4-ylmethyl]-amide] |
| 845 | O=C(NCc1cc(-c2ccc(C(F)(F)F)cc2)nc(N2CCN(c3ccccc3F)CC2)c1)[C@@H]1CCCN1S(=O)(=O)c1ccc(F)cc1 [Example 325, N-({2-[4-(2-Fluorophenyl)piperazin-1-yl]-6-[4-(trifluoromethyl)phenyl]pyridin-4-yl}methyl)-1-[(4-fluorophenyl)sulfonyl]-L-prolinamide] |
